Laboratory results: paper PMC8670242, “Functional Characterization and Structural Insights Into Stereoselectivity of Pulegone Reductase in Menthol Biosynthesis” (Frontiers in Plant Science, 2021)

Molecular target: T1, ArPR (Agastache rugosa, UniProt A0A977TNC5)
T1 construct: pET28a (BamHI/SacI) His-tag fusion, E. coli BL21(DE3), Ni-NTA and gel filtration
Assay: in vitro reduction, GC
Format: biochemical
Conditions: NADPH

T1 sequence (A0A977TNC5 1-343): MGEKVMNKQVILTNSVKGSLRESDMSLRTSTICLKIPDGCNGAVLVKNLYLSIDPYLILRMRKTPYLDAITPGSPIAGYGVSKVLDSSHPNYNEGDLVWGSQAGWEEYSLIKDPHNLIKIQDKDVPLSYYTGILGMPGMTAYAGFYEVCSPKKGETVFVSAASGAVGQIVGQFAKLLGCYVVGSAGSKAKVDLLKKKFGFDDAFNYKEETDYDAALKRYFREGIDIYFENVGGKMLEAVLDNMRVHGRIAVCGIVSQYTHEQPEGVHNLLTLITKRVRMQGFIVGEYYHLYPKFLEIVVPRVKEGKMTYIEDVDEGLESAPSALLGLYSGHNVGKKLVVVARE

CC(C)=C1CC[C@H](C)CC1=O [(−)-pulegone]
in vitro reduction, GC: showed a higher preference for (−)-pulegone over (+)-pulegone
